Results on 2 compounds are retold here after US20260216127A1, “COMBINATIONS OF A UROTHILIN AND A KETONE BODY” (Amazentis SA, priority 2022, published 2026).

Experiment [1] has as its system Interleukin 6 (IL-6) secretion in C2C12 cells. As to the kind of experiment: IL-6 secretion (ELISA) of differentiated C2C12 cells exposed to pro-inflammatory cytokine mix (cytomix). It is filed as cell-based. As for the experimental part: C2C12 Myoblasts, purchased from the American Type Culture Collection (ATCC) (ref. CRL-1772), were seeded at 8000 cells per well in a 96 well plate (Greiner, Kremsmünster, Austria) using a DMEM Glutamax 4.5 g D-glucose (Gibco, ref 31966021) supplemented with foetal bovine serum (FBS) 10% (PanBiotech, ref P190902), 1% PenStrep (Biowest) and 1% HEPES (Biowest). Cells were then differentiated for 6 days using a differentiation medium (DMEM Glutamax 4.5 g D-glucose (Gibco, ref 31966021), 2% Horse serum (Thermofisher, ref 160501229) 1% PenStrep and 1% HEPES). All the media were sterilized with a 0.45 μm filter unit (VWR). […] The medium was collected and an ELISA for Interleukin-6 were performed following the instruction provided by the supplier (Proteintech ref. KE10007). Finally, the absorbance at a wavelength of 450 nm was measured using a microplate plate reader (Fluostar Optima, BMG Labtech).

Experiment [2] concerns inflammation in certain cell-based models. Conditions: cited from earlier work.

Where two headings read alike, the source gives them in different places.

Consider `CC(O)CC(=O)[O-].[Na+]` (racemic) [BHB, DL-β-Hydroxybutyric acid sodium salt], for which, in experiment [1] (BHB 5 μM alone, cytomix), the “impact on IL-6 secretion” value is reported as −0.007%. Besides, the “reduction of IL-6 secretion” value in experiment [1] (higher dose of BHB alone, cytomix) stood at 32%. Also, the figures for the “concentration at which the anti-inflammatory effect of BHB was observed” value in experiment [2] (PMC6402511) and in experiment [2] (PMID: 25686106) were more than 250 µM and “above 2 mM”, respectively.
On to `O=c1oc2cc(O)ccc2c2ccc(O)cc12` [Urolithin A], for which the “reduction of IL-6 secretion” value came out at 25% in experiment [1] (UA 6.25 μM alone, 24 h pre-treatment then cytomix 24 h) and 60% in experiment [1] (UA 12.5 μM alone, 24 h pre-treatment then cytomix 24 h).
